Experimental data as given in ChEMBL document CHEMBL3046146, “Mutations in the mitochondrial cytochrome b of Tetranychus urticae Koch (Acari: Tetranychidae) confer cross-resistance between bifenazate and acequinocyl” (2009).
≈ marks a conversion by molar mass, not a printed value.

Tests used:
Format in all cases: functional
[1] = test system: Tetranychus urticae; experiment: Toxicity against adult Tetranychus urticae HOL3 (two-spotted spider mite) harboring mitochondrial P262T Cytb heteroplasmic mutation in compound pretreated bean leaves assessed as mortality
[2] = test system: Tetranychus urticae; experiment: Toxicity against adult Tetranychus urticae HOL2 (two-spotted spider mite) harboring mitochondrial G126S Cytb mutation in compound pretreated bean leaves assessed as mortality
[3] = test system: Tetranychus urticae; experiment: Toxicity against adult Tetranychus urticae HOL1 (two-spotted spider mite) harboring mitochondrial G126S and I136T Cytb mutation in compound pretreated bean leaves assessed as mortality
[4] = test system: Tetranychus urticae; experiment: Synergism ratio of LC50 for adult Tetranychus urticae BR-VL (two-spotted spider mite) to LC50 for adult Tetranychus urticae BR-VL in presence of 2000 mg/L GST inhibitor, DEM application
[5] = test system: Tetranychus urticae; experiment: Synergism ratio of LC50 for adult Tetranychus urticae BR-VL (two-spotted spider mite) to LC50 for adult Tetranychus urticae BR-VL in presence of 2000 mg/L esterase inhibitor, DEF application
[6] = test system: Tetranychus urticae; experiment: Synergism ratio of LC50 for adult Tetranychus urticae BR-VL (two-spotted spider mite) to LC50 for adult Tetranychus urticae BR-VL in presence of 2000 mg/L cytochrome P450 monoxygenase inhibitor, PBO
[7] = test system: Tetranychus urticae; experiment: Synergism ratio of LC50 for adult Tetranychus urticae GSS (two-spotted spider mite) to LC50 for adult Tetranychus urticae GSS in presence of 2000 mg/L GST inhibitor, DEM application
[8] = test system: Tetranychus urticae; experiment: Synergism ratio of LC50 for adult Tetranychus urticae GSS (two-spotted spider mite) to LC50 for adult Tetranychus urticae GSS in presence of 1000 mg/L esterase inhibitor, DEF application
[9] = test system: Tetranychus urticae; experiment: Synergism ratio of LC50 for adult Tetranychus urticae GSS (two-spotted spider mite) to LC50 for adult Tetranychus urticae GSS in presence of 2000 mg/L cytochrome P450 monoxygenase inhibitor, PBO
[10] = test system: Tetranychus urticae; experiment: Toxicity against adult Tetranychus urticae BEL1 (two-spotted spider mite) in bean leaves assessed as mortality treated 24 hr after 2000 mg/L GST inhibitor, DEM application; details: BEL-1, 24 h
[11] = test system: Tetranychus urticae; experiment: Toxicity against adult Tetranychus urticae BEL1 (two-spotted spider mite) in bean leaves assessed as mortality treated 24 hr after 2000 mg/L esterase inhibitor, DEF application; details: BEL-1, 24 h
[12] = test system: Tetranychus urticae; experiment: Toxicity against adult Tetranychus urticae BEL1 (two-spotted spider mite) in bean leaves assessed as mortality treated 24 hr after 2000 mg/L cytochrome P450 monoxygenase inhibitor, PBO application; details: BEL-1, 24 h
[13] = test system: Tetranychus urticae; experiment: Toxicity against adult Tetranychus urticae BR-VL (two-spotted spider mite) in bean leaves assessed as mortality treated 24 hr after 2000 mg/L GST inhibitor, DEM application
[14] = test system: Tetranychus urticae; experiment: Toxicity against adult Tetranychus urticae BR-VL (two-spotted spider mite) in bean leaves assessed as mortality treated 24 hr after 2000 mg/L esterase inhibitor, DEF application
[15] = test system: Tetranychus urticae; experiment: Synergism ratio of LC50 for adult Tetranychus urticae BEL-1 (two-spotted spider mite) to LC50 for adult Tetranychus urticae BEL-1 in presence of 2000 mg/L GST inhibitor, DEM application
[16] = test system: Tetranychus urticae; experiment: Synergism ratio of LC50 for adult Tetranychus urticae BEL-1 (two-spotted spider mite) to LC50 for adult Tetranychus urticae BEL-1 in presence of 2000 mg/L esterase inhibitor, DEF application
[17] = test system: Tetranychus urticae; experiment: Synergism ratio of LC50 for adult Tetranychus urticae BEL-1 (two-spotted spider mite) to LC50 for adult Tetranychus urticae BEL-1 in presence of 2000 mg/L cytochrome P450 monoxygenase inhibitor, PBO
[18] = test system: Tetranychus urticae; experiment: Toxicity against adult Tetranychus urticae BR-VL (two-spotted spider mite) in bean leaves assessed as mortality treated 24 hr after 2000 mg/L cytochrome P450 monoxygenase inhibitor, PBO application
[19] = test system: Tetranychus urticae; experiment: Toxicity against adult Tetranychus urticae GSS (two-spotted spider mite) in bean leaves assessed as mortality treated 24 hr after 2000 mg/L GST inhibitor, DEM application
[20] = test system: Tetranychus urticae; experiment: Toxicity against adult Tetranychus urticae GSS (two-spotted spider mite) in bean leaves assessed as mortality treated 24 hr after 1000 mg/L esterase inhibitor, DEF application
[21] = test system: Tetranychus urticae; experiment: Toxicity against adult Tetranychus urticae GSS (two-spotted spider mite) in bean leaves assessed as mortality treated 24 hr after 2000 mg/L cytochrome P450 monoxygenase inhibitor, PBO application
[22] = test system: Tetranychus urticae; experiment: Toxicity against female adult Tetranychus urticae (two-spotted spider mite) F1 progeny generated from reciprocal cross between female BEL1 and male GSS in compound pretreated bean leaves assesed as mortality
[23] = test system: Tetranychus urticae; experiment: Toxicity against female adult Tetranychus urticae (two-spotted spider mite) F1 progeny generated from reciprocal cross between female GSS and male BEL1 in compound pretreated bean leaves assesed as mortality
[24] = test system: Tetranychus urticae; experiment: Toxicity against female adult Tetranychus urticae (two-spotted spider mite) F1 progeny generated from reciprocal cross between female BR-VL and male GSS in compound pretreated bean leaves assesed as mortality
[25] = test system: Tetranychus urticae; experiment: Toxicity against female adult Tetranychus urticae (two-spotted spider mite) F1 progeny generated from reciprocal cross between female GSS and male BR-VL in compound pretreated bean leaves assesed as mortality
[26] = test system: Tetranychus urticae; experiment: Resistance ratio of LC50 for bifenazate-resistant Tetranychus urticae (two-spotted spider mite) BEL1 harboring mitochondrial P262T Cytb fixed mutation to LC50 for Tetranychus urticae GSS
[27] = test system: Tetranychus urticae; experiment: Resistance ratio of LC50 for Tetranychus urticae (two-spotted spider mite) HOL4 harboring mitochondrial G126S Cytb mutation to LC50 for Tetranychus urticae GSS
[28] = test system: Tetranychus urticae; experiment: Resistance ratio of LC50 for Tetranychus urticae HOL3 (two-spotted spider mite) harboring mitochondrial P262T Cytb heteroplasmic mutation to LC50 for Tetranychus urticae GSS
[29] = test system: Tetranychus urticae; experiment: Resistance ratio of LC50 for Tetranychus urticae HOL2 (two-spotted spider mite) harboring mitochondrial G126S Cytb mutation to LC50 for Tetranychus urticae GSS
[30] = test system: Tetranychus urticae; experiment: Resistance ratio of LC50 for Tetranychus urticae HOL1 (two-spotted spider mite) harboring mitochondrial G126S and I136T Cytb mutation to LC50 for Tetranychus urticae GSS
[31] = test system: Tetranychus urticae; experiment: Resistance ratio of LC50 for bifenazate-resistant Tetranychus urticae BR-VL (two-spotted spider mite) harboring mitochondrial G126S, S141F and D161G Cytb mutation to LC50 for Tetranychus urticae GSS
[32] = test system: Tetranychus urticae; experiment: Resistance ratio of LC50 for METI-resistant Tetranychus urticae MR-VP (two-spotted spider mite) to LC50 for Tetranychus urticae GSS
[33] = test system: Tetranychus urticae; experiment: Resistance ratio of LC50 for Tetranychus urticae MR-VL (two-spotted spider mite) to LC50 for Tetranychus urticae GSS
[34] = test system: Tetranychus urticae; experiment: Resistance ratio of LC50 for Tetranychus urticae WI (two-spotted spider mite) to LC50 for Tetranychus urticae GSS
[35] = test system: Tetranychus urticae; experiment: Resistance ratio of LC50 for bifenazate-susceptible Tetranychus urticae LS-VL (two-spotted spider mite) to LC50 for Tetranychus urticae GSS
[36] = test system: Tetranychus urticae; experiment: Toxicity against adult bifenazate-resistant Tetranychus urticae BEL1 (two-spotted spider mite) harboring mitochondrial P262T Cytb fixed mutation in compound pretreated bean leaves assessed as mortality; details: BEL-1
[37] = test system: Tetranychus urticae; experiment: Toxicity against adult Tetranychus urticae HOL4 (two-spotted spider mite) harboring mitochondrial G126S Cytb mutation in compound pretreated bean leaves assessed as mortality
[38] = test system: Tetranychus urticae; experiment: Toxicity against adult bifenazate-resistant Tetranychus urticae BR-VL (two-spotted spider mite) harboring mitochondrial G126S, S141F and D161G Cytb mutation in compound pretreated bean leaves assessed as mortality
[39] = test system: Tetranychus urticae; experiment: Toxicity against adult METI-resistant Tetranychus urticae MR-VP (two-spotted spider mite) in compound pretreated bean leaves assessed as mortality
[40] = test system: Tetranychus urticae; experiment: Toxicity against adult Tetranychus urticae MR-VL (two-spotted spider mite) in compound pretreated bean leaves assessed as mortality
[41] = test system: Tetranychus urticae; experiment: Toxicity against adult Tetranychus urticae WI (two-spotted spider mite) in compound pretreated bean leaves assessed as mortality
[42] = test system: Tetranychus urticae; experiment: Toxicity against adult bifenazate-susceptible Tetranychus urticae LS-VL (two-spotted spider mite) in compound pretreated bean leaves assessed as mortality
[43] = test system: Tetranychus urticae; experiment: Toxicity against adult Tetranychus urticae GSS (two-spotted spider mite) in compound pretreated bean leaves assessed as mortality

CCCCCCCCCCCCC1=C(OC(C)=O)C(=O)c2ccccc2C1=O [ACEQUINOCYL]
LC50 [1]: 126 µg/mL (≈ 328 µM) | LC50 [2]: 11.2 µg/mL (≈ 29.1 µM) | LC50 [3]: 9.4 µg/mL (≈ 24.4 µM) | RatioLC50 [4]: 1.5 | RatioLC50 [5]: 1.1 | RatioLC50 [6]: 5.6 | RatioLC50 [7]: 1.4 | RatioLC50 [8]: 1.1 | RatioLC50 [9]: 2.26 | LC50 [10]: 484 µg/mL (≈ 1260 µM) | LC50 [11]: 450 µg/mL (≈ 1170 µM) | LC50 [12]: 79.4 µg/mL (≈ 206 µM) | LC50 [13]: 782 µg/mL (≈ 2030 µM) | LC50 [14]: 1060 µg/mL (≈ 2760 µM) | RatioLC50 [15]: 1.1 | RatioLC50 [16]: 1.2 | RatioLC50 [17]: 6.9 | LC50 [18]: 209 µg/mL (≈ 544 µM) | LC50 [19]: 8.3 µg/mL (≈ 21.6 µM) | LC50 [20]: 9.9 µg/mL (≈ 25.7 µM) | LC50 [21]: 5 µg/mL (≈ 13 µM) | LC50 [22]: 535 µg/mL (≈ 1390 µM) | LC50 [23]: 26.2 µg/mL (≈ 68.1 µM) | LC50 [24]: 1200 µg/mL (≈ 3120 µM) | LC50 [25]: 22.3 µg/mL (≈ 58 µM) | RatioLC50 [26]: 48.5 | RatioLC50 [27]: 0.9 | RatioLC50 [28]: 11.1 | RatioLC50 [29]: 1 | RatioLC50 [30]: 0.8 | RatioLC50 [31]: 105 | RatioLC50 [32]: 2.7 | RatioLC50 [33]: 1.4 | RatioLC50 [34]: 2.3 | RatioLC50 [35]: 0.9 | LC50 [36]: 548 µg/mL (≈ 1430 µM) | LC50 [37]: 10.2 µg/mL (≈ 26.5 µM) | LC50 [38]: 1180 µg/mL (≈ 3070 µM) | LC50 [39]: 30.5 µg/mL (≈ 79.3 µM) | LC50 [40]: 15.8 µg/mL (≈ 41.1 µM) | LC50 [41]: 26.5 µg/mL (≈ 68.9 µM) | LC50 [42]: 10.7 µg/mL (≈ 27.8 µM) | LC50 [43]: 11.3 µg/mL (≈ 29.4 µM)
